Drawing on US4725601A, “Certain imidazo[1,2-a]pyridines useful in the treatment of ulcers” (Fujisawa Pharmaceutical Co., Ltd., priority 1985, dated 1988), this text covers Inhibition % and ED50 for 3 compounds.

One assay has as its system ethanol ulcer. Put plainly: Inhibition on ethanol ulcer. The assay is classed as in vivo, male Spraque-Dawley rats. To be noted: rat, oral, 30 minutes before absolute ethanol; for Inhibition %: 32 mg/kg, ulcer area vs control. On the procedure:
(A) Inhibition on ethanol ulcer
Five male Spraque-Dawley rats, aged 7 weeks and weighing about 200 g, were used per group for the study on ethanol ulcer after the fast for 24 hours.
Test compound was suspended in 0.1% methylcellulose aqueous solution, and the suspension (5 ml/kg) was orally given to each rat.
The control group was given a vehicle, i.e. 0.1% methylcellulose aqueous solution (5 ml/kg), alone in the same way.
Absolute ethanol (5 ml/kg) was orally administered 30 minutes after dosing with test compound, and one hour later, the rats were sacrificed and their stomachs were removed. The area of ulcers of each rat was measured. The mean area […] in the medicated group was compared with that in the control group.

Another assay relates to stress ulcer. The experiment in a line: Inhibition on stress ulcer. The format is in vivo, Sprague-Dawley rats. Particulars: stress ulcer (immobilization, water bath 22° C., seven hours), rat, oral; for Inhibition %: 32 mg/kg, ulcer area vs control. On the procedure: (B) Inhibition on stress ulcer
Five Sprague-Dawley rats weighing about 200 g were used per group. Each animal was immobilized in a small cage and put in a water bath allowing to respire. The temperature of the water bath kept at 22° C. The test compound was administered orally just before the immobilization. Seven hours later, the animals were sacrificed and their stomachs were removed. The stomach was then fixed with 2% formalin. The area of ulcers was measured for each animal. The mean area (mm^2) in the medicated animals was compared with that in the control animals.

Molecules are shown by their SMILES.

Turning to `C#CCOCc1c(C)nc2c(OCc3ccccc3Cl)cccn12` [Test Compound (2), 8-(2-Chlorobenzyloxy)-3-(2-propynyloxymethyl)-2-methylimidazo[1,2-a]pyridine], the Inhibition % was found to be 98.2% in the assay on ethanol ulcer and 100% in the assay with stress ulcer.
As to `C#CCOCc1c(C)nc2c(OCc3ccccc3C)cccn12` [Test Compound (1), 8-(2-Methylbenzyloxy)-3-(2-propynyloxymethyl)-2-methylimidazo[1,2-a]pyridine], the Inhibition % in the assay with ethanol ulcer amounted to 94.4%; in the assay on stress ulcer, 100%. For the same compound, the ED50 came out at 1.1 mg/kg in the assay with ethanol ulcer and 0.15 mg/kg in the assay with stress ulcer (7 h).
`C#CCc1c(C)nc2c(OCc3ccccc3C)cccn12` [Test Compound (3), 8-(2-Methylbenzyloxy)-3-(2-propynyl)-2-methylimidazo[1,2-a]pyridine]: the Inhibition % in the assay on ethanol ulcer came to 91.8%; with stress ulcer, 100%.
